Consider six compounds from patent US20100105758A1 (Centre de Recherche Public de la Sante, priority 2006, published 2010).

In test [1] the test system is THP-1-derived macrophages. The test is described as follows: MMP-9 secretion by THP-1-derived macrophages, gelatin zymography and densitometry. The note with it: PMA 48 hours; for MMP-9 secretion (zymography), modulators of Ado metabolism: added alone or in combination, Ado 10 μM, EHNA 10 μM, DIP 10 μM. The format is cell-based. On the procedure:
Cells were incubated for 15 min with increasing concentrations of Ado and 10 μM EHNA before differentiation with 150 nM PMA for 48 hours. […] Concentrations of 10 μM Ado and 10 μM EHNA were used in further experiments. […] FIG. 2. […] THP-1 cells were treated for 15 min with Ado and 10 μM EHNA or vehicle before differentiation to macrophages with 150 nM PMA for 48 hours. EHNA, which inhibits Ado deaminase, and DIP, which inhibits Ado transport, were used to enhance endogenous Ado concentration. Gelatinase activity was measured in cell-free conditioned medium by zymography and densitometry. A. A representative zymogram is shown. […] C. Time-course experiment. […] FIG. 3. […] A. THP-1 cells were treated for 15 min with 10 μM Ado and 10 μM EHNA or vehicle before differentiation to macrophages with 150 nM PMA for 48 hours. […] B. THP-1 cells were treated for 15 min with 0.1, 1 or 10 μM of Ado receptors agonists (CPA, A1-specific; CGS21680, A2a-specific; IB-MECA, A3-specific). […] Gelatinase activity was assessed in conditioned medium. […] C. […] Cells were transfected with siRNA specific for A2a, A2b or A3 Ado receptors, incubated for 48 hours to achieve down-regulation of Ado receptors expression, treated for 15 min with 10 μM Ado and 10 μM EHNA or vehicle before differentiation to macrophages with 150 nM PMA for 48 hours. Conditioned medium was analysed by gelatin zymography. […] Cell culture. All cell culture reagents were from Lonza (Verviers, Belgium) unless specified otherwise. Peripheral venous blood was obtained from healthy volunteers. Peripheral blood mononuclear cells were obtained by Ficoll gradient. Monocytes were purified by negative selection using the Monocyte Isolation Kit II (Myltenyi Biotec GmbH, Bergisch Gladbach, Germany). […] Macrophages were incubated for 15 minutes with Ado/EHNA (10 μmol/L) or vehicle, then LPS (100 ng/ml) or vehicle was added and cells were incubated for another 24 hours before harvesting. Cells from the monocyte-like line THP-1 (ATCC, LGC Promochem, Teddington, UK) were propagated at 37° C.-5% CO2 in RPMI 1640 medium supplemented with L-glutamine (2 mM), Penicillin (100 Units/ml), Streptomycin (100 μg/ml), non-essential amino acids solution (1 μM), sodium pyruvate (1 mM), and 10% heat-inactivated fetal calf serum (FCS) (Eurobio, Les Ulys, France). For experiments, FCS in culture medium was reduced to 1%. Cells were treated for 15 min with EHNA vehicle (DMSO), Ado (0.01 to 100 μM), Ado receptors agonists (0.1 to 10 μM), EHNA (10 μM) or Dipyridamole (DIP) (10 μM). Cells were then differentiated into macrophages with 150 nM phorbol myristate actetate (PMA) for 24 hours. Macrophages were subsequently treated with LPS (1 to 1000 ng/ml), fMLP (10^−7 M) or H2O2 (10 mM) for another 24 hours. Analysis of gelatinase activity. Gelatin zymography was performed on culture supernatants to assess secreted MMP-9 activity. Briefly, conditioned medium was loaded on SDS-polyacrylamide gels containing 0.2% gelatin under non reducing conditions. After electrophoresis, gels were washed and incubated overnight at 37° C. in assay buffer (50 mM Tris-HCl, pH 7.6, 200 mM NaCl, 5 mM CaCl2, and 0.02% Brij35). Subsequently, gels were stained in 0.1% Coomassie Blue and destained in 25% ethanol/8% acetic acid. Densitometry was achieved using the Gel Logic 2200 Digital Imaging system and Aida Software (Kodak, Zavemtem, Belgium).

For another test, the system named is THP-1 monocytes. The test is described as follows: Migration assay, modified Boyden chamber coated with gelatin B, MCP-1 gradient. The class given is cell-based. The conditions noted are these: pre-incubation with TIMP-1 10 ng/mL or GM6001 10 nM or 1 μM. As to the method: Infiltration of monocytes/macrophages into the myocardium is a hallmark of ventricular remodelling post MI. Cell migration is facilitated by degradation of the ECM by MMP-9. We therefore tested whether the increase in MMP-9 secretion by Ado could improve monocytes migration along a gradient of MCP-1. For this purpose, the top of a modified Boyden chamber was coated with gelatin B and MCP-1 was added in the bottom compartment. Monocytes were treated with Ado before seeding on the microporous membrane of the chamber. […] This effect was inhibited by the synthetic MMP inhibitor GM6001 and the endogenous MMP-9 inhibitor TIMP-1 (FIG. 4).
FIG. 4. Ado increases monocytes migratory capacity. THP-1 monocytes were treated for 24 hours with 10 μM Ado and 10 μM EHNA or vehicle before seeding on the microporous membrane of a modified Boyden chamber pre-coated with gelatin B. 10 ng/mL MCP-1 was added in the bottom compartment. When specified, cells were pre-incubated with TIMP-1 (10 ng/mL) or GM6001 (10 nM or 1 μM) before seeding on the membrane. Cell migration was quantified by fluorescence after 24 hours. […] Results are mean±SD (n=5). * P<0.05 vs no Ado.
Migration assay. Migratory capacity of THP-1 monocytes was studied using a Transwell® system with polycarbonate microporous membranes (5 μm pore size, 24-well chamber, Costar, Lowell, USA). Membranes were coated with a 2% gelatin B solution and allowed to dry at room temperature for 2 hours. MCP-1 (10 ng/mL) was added in the bottom compartment. THP-1 monocytes were cultured in serum- and antibiotic-free medium with or without 10 μM Ado and 10 μM EHNA for 24 hours. Cells were pre-incubated for 30 min with GM 6001 (10 nM or 1 μM) or TIMP-1 (10 ng/mL) before seeding into the upper compartment at a concentration of 7.5×10^4 cells per well. After 24 hours, cells that migrated through the membrane were detached, lysed and stained by the CyQuant GR® dye (Invitrogen) for 15 min. Fluorescence was read with a POLARstar Optima (BMG LABTECH, Champigny-sur-Marne, France) microplate reader (Xex=492 nm, kem=520 nm).

A further test relates to MMPs. The note with it: given 24-72 hours post MI; cited from earlier work.

“Also recorded” adds a separate entry of the source.

Consider `OCCN(CCO)c1nc(N2CCCCC2)c2nc(N(CCO)CCO)nc(N3CCCCC3)c2n1` [DIP, Dipyridamole], for which the “MMP-9 secretion (zymography), modulators of Ado metabolism” value in test [1] is “triggered MMP-9 secretion”. `CNC(=O)[C@H](Cc1c[nH]c2ccccc12)NC(=O)[C@@H](CC(=O)NO)CC(C)C` [GM6001, (R)-N-4-Hydroxy-N1-[(S)-2-(1H-indol-3-yl)-1-methylcarbamoly-ethyl]-2-isobutyl-succinamide]: in the test on THP-1 monocytes, the “inhibition of Ado-enhanced cell migration” value was “partly prevented; also recorded: inhibited”. The same measure, in the same setting: the entry for “TIMP-1: recombinant human protein TIMP-1 (R&D Systems), endogenous MMP-9 inhibitor” is “partly prevented; also recorded: inhibited”. For the compound `CCCCCC[C@@H]([C@@H](C)O)n1cnc2c(N)ncnc21` (racemic) [EHNA], the “MMP-9 secretion (zymography), modulators of Ado metabolism” value in test [1] was “triggered MMP-9 secretion”. As to `COc1ccc(C(=O)Nc2ccc(S(=O)(=O)NC(CC#CCN3CCOCC3)C(=O)O)cc2)cc1` (stereo not shown) [PG-116800], in the test on MMPs, the “outcome after MI” value was “did not improve outcome” and the “prevention of LV remodelling after MI” value is recorded as “failed to prevent LV remodelling”. As to `CNC(=O)[C@H]1O[C@@H](n2cnc3c(NCc4cccc(I)c4)ncnc32)[C@H](O)[C@@H]1O` [IB-MECA, 1-deoxy-1-[6-[[(3-iodophenyl)methyl]amino]-9H-purine-9-yl]-N-methyl-Dribofuranuronamide], the “MMP-9 secretion with Ado receptor agonists” value in test [1] (0.1, 1 or 10 μM agonist for 15 min, EHNA omitted) is recorded as “increase MMP-9 secretion to the same extent as Ado”.
